Columns and labels:
ASZ001 cells = experiment: MTS anti-proliferative assay in ASZ001 cells; assay type: cell-based, murine; details: Mus musculus, ASZ001, Ave ± SEM
Description: Cell viability was assessed by MTS proliferation assay kit (Promega) per manufacturer's protocol. Briefly, 2×10^4 cells were plated in a 96-well plate in 100 μL growth medium to make the cell population at ˜80% confluence. After 24 h, 1 μL drug solution was added to each well. DMSO was used as vehicle compound. After 48 h incubation (37° C., 5% CO2), 20 μL of freshly prepared 3-(4,5-dimethylthiazol-2-yl)-5-(3-carboxymethoxyphenyl)-2-(4-sulfophenyl)-2H-tetrazolium (MTS)/phenazine methosulfate (PMS) solution was added to each well, and the plate was returned to the incubator for 1 h. Absorbance at 490 nm was recorded, and the result was analyzed by GraphPad Prism 5. GI50 values represent mean±SEM for at least two separate experiments performed in triplicate.

GLI1 mRNA expression [1] = experiment: RT-qPCR GLI1 mRNA expression in Sufu-KO MEFs; assay type: cell-based, mouse
Description: (§1) ASZ001 and Sufu-KO cells were seeded in 96-well plates (10,000/well, 100 μL) and incubated overnight under growth conditions. On the second day, ‘growth’ media was removed and replaced by ‘assay’ media (100 μL). On the third day, cells were treated with a serial dilution of drugs or DMSO for 48 h. mRNA expression was determined through Taqman Fast Cells-to-CT Kit (#4399003) per the manufacturer's instructions. In brief, cells were washed with chilled PBS, then mixed with lysis solution containing DNase I and incubated at RT for 5 min. Stop solution was then added to quench the lysis reagents. cDNA was then synthesized through a BioRad MyCycler following addition of reverse transcriptase. Finally, the cDNA was amplified through an ABI 7500 system following addition of Taqman Fast Universal PCR Master Mix and Taqman Gene Expression Primer. Relative gene expression levels were computed by the ΔΔCt method. Values represent mRNA expression relative to DMSO control (set at 1.0). Data were analyzed using GraphPad Prism, and IC50 values are the mean±SEM for at least two separate experiments performed in triplicate. Primers used are as follows: mouse ActB (Mm00607939_s1); mouse GLI1 (Mm00494645_ml); mouse Gli2 (Mm01293117_ml); mouse Ptch1 (Mm00436026_ml); mouse Hhip (Mm00469580_ml).

GLI1 mRNA expression [2] = experiment: RT-qPCR GLI1 mRNA expression in ASZ001 BCC cells; assay type: cell-based, mouse
Description: as §1

GLI1 mRNA expression [3] = experiment: RT-qPCR GLI1 mRNA expression in OHCs-stimulated C3H10T1/2 MEFs; assay type: cell-based, mouse; details: for % Gli1 Expression: C3H10T1/2 MEFs, 10 μM, relative to Hh-agonist OHCs (set as 100%)
Description: as §1
C3H10T1/2 MEFs were seeded in 24-well plates (50,000/well, 500 μL). Following 24 h incubation, the ‘growth’ media was removed and replaced with ‘assay’ media (500 μL). On the third day, cells were treated with either DMSO, OHCs, or OHCs+drugs. Following a 24 h incubation, gene expression analysis was carried out following identical protocols as described above.

[4] = Mus musculus, Table 5, GLI1 mRNA, Ave ± SEM, read-out: RT-qPCR, IC50 Sufu-KO
[5] = Mus musculus, ASZ001, Table 5, GLI1 mRNA, Ave ± SEM, read-out: RT-qPCR, IC50 ASZ001
[6] = Table 2, mean ± SEM, read-out: GLI1 mRNA expression, IC50 C3H10T1/2
[7] = Table 4, racemates and enantiomers, mean ± SEM, read-out: RT-qPCR, IC50 C3H10T1/2
[8] = Table 2, mean ± SEM, read-out: GLI1 mRNA expression, IC50 Sufu-KO
[9] = Table 4, racemates and enantiomers, mean ± SEM, read-out: RT-qPCR, IC50 Sufu-KO
[10] = Table 2, mean ± SEM, read-out: GLI1 mRNA expression, IC50 ASZ001
[11] = Table 4, racemates and enantiomers, mean ± SEM, read-out: RT-qPCR, IC50 ASZ001
[12] = Mus musculus, Table 6, GLI1 mRNA, Ave ± SEM, read-out: RT-qPCR, IC50 Sufu-KO
[13] = Mus musculus, ASZ001, Table 6, GLI1 mRNA, Ave ± SEM, read-out: RT-qPCR, IC50 ASZ001

## CCN(CC)c1ccc(C(Nc2ccccn2)c2ccc3ccc(C)nc3c2OCc2cccc(OC)c2)cc1 (centres unmarked) [Compound 25, N-((4-Diethylaminophenyl)(8-(3-methoxybenzyloxy)-2-methylquinolin-7-yl)methyl)pyridin-2-amine]
ASZ001 cells; Table 5, 48 h
  GI50: > 100 µM
GLI1 mRNA expression [1]; [4]
  IC50: > 25 µM
GLI1 mRNA expression [2]; [5]
  IC50: 1.3 ± 0.4 µM

## CCN(CC)c1ccc(C2c3ccc4ccc(C)nc4c3OC(=O)N2c2ccccn2)cc1 (centres unmarked) [Compound 27, 4-(4-Diethylaminophenyl)-9-methyl-3-(pyridin-2-yl)-3,4-dihydro-2H-[1,3]oxazino[5,6-h]quinolin-2-one]
ASZ001 cells; Table 5, 48 h
  GI50: > 100 µM
GLI1 mRNA expression [1]; [4]
  IC50: > 25 µM
GLI1 mRNA expression [2]; [5]
  IC50: 6.9 ± 1.1 µM

## COc1ccc(C(Nc2ccccn2)c2ccc3ccc(C)nc3c2O)cc1 (racemic) [s18]
GLI1 mRNA expression [3]; mean ± SEM
  % Gli1 Expression: >100%

## CCN(CC)c1ccc(C(Nc2ccccn2)c2ccc3ccc(C)nc3c2OCc2ccc(OC)cc2)cc1 (centres unmarked) [Compound 26, N-((4-Diethylaminophenyl)(8-(4-methoxybenzyloxy)-2-methylquinolin-7-yl)methyl)pyridin-2-amine]
ASZ001 cells; Table 5, 48 h
  GI50: > 100 µM
GLI1 mRNA expression [1]; [4]
  IC50: > 25 µM
GLI1 mRNA expression [2]; [5]
  IC50: 1.2 ± 0.5 µM

## Oc1c(C(Nc2ccccn2)c2c(F)cccc2Cl)ccc2cccnc12 (racemic) [Compound 12]
GLI1 mRNA expression [3]; mean ± SEM
  % Gli1 Expression: 6.5 ± 0.8%
GLI1 mRNA expression [3]; [6]
  IC50: 0.73 ± 0.07 µM
GLI1 mRNA expression [3]; [7]
  IC50: 0.73 ± 0.07 µM
GLI1 mRNA expression [1]; [8]
  IC50: 1 ± 0.2 µM
GLI1 mRNA expression [1]; [9]
  IC50: 1 ± 0.2 µM
GLI1 mRNA expression [2]; [10]
  IC50: 3.6 ± 1.5 µM
GLI1 mRNA expression [2]; [11]
  IC50: 3.6 ± 1.5 µM

## CCOc1cccc(C(Nc2cc(C)ccn2)c2ccc3cccnc3c2O)c1C (racemic) [s3]
GLI1 mRNA expression [3]; mean ± SEM
  % Gli1 Expression: 59.1 ± 11.9%

## CCN(CC)c1ccc(C(Nc2ccccn2)c2c(O)ccc3cccnc23)cc1 (centres unmarked) [Compound 19, 8-((4-Diethylaminophenyl)(pyridin-2-ylamino)methyl)quinolin-7-ol]
ASZ001 cells; Table 5, 48 h
  GI50: > 100 µM
GLI1 mRNA expression [1]; [4]
  IC50: > 25 µM
GLI1 mRNA expression [2]; [5]
  IC50: 14.6 ± 1.4 µM

## CCOc1ccc(C(Nc2ccccn2)c2ccc3ccc(C)nc3c2O)cc1OC (racemic) [s7]
GLI1 mRNA expression [3]; mean ± SEM
  % Gli1 Expression: >100%

## COc1cccc(C(Nc2cc(C)ccn2)c2ccc3cccnc3c2O)c1C (racemic) [Compound 2]
GLI1 mRNA expression [3]; mean ± SEM
  % Gli1 Expression: 7.0 ± 1.4%
GLI1 mRNA expression [3]; [6]
  IC50: 0.76 ± 0.23 µM
GLI1 mRNA expression [1]; [8]
  IC50: 0.99 ± 0.32 µM
GLI1 mRNA expression [2]; [10]
  IC50: 5.8 ± 1.1 µM

## Cc1ccnc(NC(c2cccc(Cl)c2Cl)c2ccc3cccnc3c2O)c1 (racemic) [Compound 10]
GLI1 mRNA expression [3]; mean ± SEM
  % Gli1 Expression: 18.2 ± 1.5%
GLI1 mRNA expression [3]; [6]
  IC50: 0.21 ± 0.1 µM
GLI1 mRNA expression [3]; [7]
  IC50: 0.21 ± 0.1 µM
GLI1 mRNA expression [1]; [8]
  IC50: 1.5 ± 0.4 µM
GLI1 mRNA expression [1]; [9]
  IC50: 1.5 ± 0.4 µM
GLI1 mRNA expression [2]; [10]
  IC50: 8.4 ± 2 µM
GLI1 mRNA expression [2]; [11]
  IC50: 8.4 ± 2 µM

## Cc1ccnc(NC(c2cc(C)ccc2C)c2ccc3cccnc3c2O)c1 (racemic) [Compound 3]
GLI1 mRNA expression [3]; mean ± SEM
  % Gli1 Expression: 10.0 ± 2.4%
GLI1 mRNA expression [3]; [6]
  IC50: 1.2 ± 0.4 µM
GLI1 mRNA expression [3]; [7]
  IC50: 1.2 ± 0.4 µM
GLI1 mRNA expression [1]; [8]
  IC50: 0.31 ± 0.21 µM
GLI1 mRNA expression [1]; [9]
  IC50: 0.31 ± 0.21 µM
GLI1 mRNA expression [2]; [10]
  IC50: 2.2 ± 0.9 µM
GLI1 mRNA expression [2]; [11]
  IC50: 2.2 ± 0.9 µM

## Cc1ccc2ccc(C(Nc3ccccn3)c3ccc(N4CCc5ccccc54)cc3)c(O)c2n1 (centres unmarked) [Compound 46, 7-((4-(Indolin-1-yl)phenyl)(pyridin-2-ylamino)methyl)-2-methylquinolin-8-ol]
ASZ001 cells; Table 7, 48 h
  GI50: 67.9 ± 12.8 µM
GLI1 mRNA expression [1]; Mus musculus, Table 7, GLI1 mRNA, Ave ± SEM, read-out: RT-qPCR, IC50 Sufu-KO
  IC50: 4.3 ± 0.8 µM
GLI1 mRNA expression [2]; Mus musculus, ASZ001, Table 7, GLI1 mRNA, Ave ± SEM, read-out: RT-qPCR, IC50 ASZ001
  IC50: 15.4 ± 4.7 µM

## CCN(CC)c1ccc(C(Nc2cccnc2)c2ccc3ccc(C)nc3c2O)cc1 (centres unmarked) [Compound 30, 7-((4-(diethylamino)phenyl)(pyridin-3-ylamino)methyl)-2-methylquinolin-8-ol]
ASZ001 cells; Table 6, 48 h
  GI50: 81.4 ± 10.7 µM
GLI1 mRNA expression [1]; [12]
  IC50: 4.4 ± 1.9 µM
GLI1 mRNA expression [2]; [13]
  IC50: 2.5 ± 0.8 µM

## CCOc1cccc(C(Nc2cc(C)ccn2)c2ccc3cccnc3c2O)c1OC (racemic) [s2]
GLI1 mRNA expression [3]; mean ± SEM
  % Gli1 Expression: 63.7 ± 7.2%

## CCN(CC)c1ccc(C(NC)c2cc(C)c3ccc(C)nc3c2O)cc1 (centres unmarked) [Compound 29, 7-((4-(Diethylamino)phenyl)(methylamino)methyl)-2,5-dimethylquinolin-8-ol]
ASZ001 cells; Table 6, 48 h
  GI50: > 100 µM
GLI1 mRNA expression [1]; [12]
  IC50: > 25 µM
GLI1 mRNA expression [2]; [13]
  IC50: 15.4 ± 2.2 µM

## CCN(CC)c1ccc(C(Nc2ccccn2)c2ccc3ccccc3c2O)cc1 (centres unmarked) [Compound 17, 2-((4-Diethylaminophenyl)(pyridin-2-ylamino)methyl)naphthalen-1-ol]
ASZ001 cells; Table 5, 48 h
  GI50: > 100 µM
GLI1 mRNA expression [1]; [4]
  IC50: > 25 µM
GLI1 mRNA expression [2]; [5]
  IC50: 9.9 ± 1.4 µM
